# From patent US20260015333A1, “COMPOUNDS AND METHODS FOR INHIBITION OF THE EVOLUTION OF […]” (priority 2022, published 2026)
# Key:
# [1] = tested on: RpoB association with rDNA; experiment: ChIP-qPCR of RpoB enrichment at rDNA; assay type: cell-based, S. typhimurium ST19; settings: treated 2 generations
# S. typhimurium ST19 Mfd = experiment: RNAP displacement (transcription roadblock) assay; assay type: biochemical; settings: Mfd 100 nM pre-incubated with ARM-1 (12.5 μM); without ARM-1 EC/IC=0.33
# Protocol: (§1) FIGS. 2A-2D depict how ARM-1 affects Mfd's biochemical activity. FIG. 2A depicts how the kd of ARM-1 was determined using microscale thermophoresis. Data shown represent a minimum of three independent experiments. FIG. 2B depicts a NADH-coupled ATPase assay. ATP hydrolysis by Mfd was coupled to NADH oxidation. Phosphoenolpyruvate is converted to pyruvate by pyruvate kinase, transferring a phosphate group onto ADP, which is only present in the reaction following ATP hydrolysis by Mfd. Pyruvate is then converted to lactate by lactate dehydrogenase, oxidizing NADH to NAD^+. Absorbance at 340 nm by NADH is used to monitor the reaction. Data shown represent a minimum of 3 biological replicates. FIG. 2C depicts a transcription roadblock assay. A P32-labled 176 bp PCR fragment was incubated with E. coli RNAP along with saturating concentrations of ATP, GTP, and UTP. 100 nM S. typhimurium ST19 Mfd preincubated with indicated concentrations of ARM-1 was added and the reaction allowed to proceed for 6 minutes. DNA products were then resolved on a polyacrylamide gel and analyzed by phosphorimaging. […] Quantification of these gels is shown below each lane. […]
# Mfd translocates along double-stranded DNA and dislodges stalled RNAP complexes. […] When quantified, a ratio of EC to IC of approximately 1 was observed, which was consistent with prior work. […]
# Mfd = Mfd (Salmonella typhimurium, UniProt Q8ZQ01); experiment: biochemical; design: species or system S. typhimurium
# Protocol: as §1
# ATPase assays were performed as described in Kiiansita et al., 2003. […] To start reaction, varying quantities of ATP were added and absorbance at 340 nm was measured every 60 seconds for 1 hour in an Epoch2 microplate spectrophotometer (BioTek). […]
# Sequence of Mfd (Q8ZQ01 entry or part of it): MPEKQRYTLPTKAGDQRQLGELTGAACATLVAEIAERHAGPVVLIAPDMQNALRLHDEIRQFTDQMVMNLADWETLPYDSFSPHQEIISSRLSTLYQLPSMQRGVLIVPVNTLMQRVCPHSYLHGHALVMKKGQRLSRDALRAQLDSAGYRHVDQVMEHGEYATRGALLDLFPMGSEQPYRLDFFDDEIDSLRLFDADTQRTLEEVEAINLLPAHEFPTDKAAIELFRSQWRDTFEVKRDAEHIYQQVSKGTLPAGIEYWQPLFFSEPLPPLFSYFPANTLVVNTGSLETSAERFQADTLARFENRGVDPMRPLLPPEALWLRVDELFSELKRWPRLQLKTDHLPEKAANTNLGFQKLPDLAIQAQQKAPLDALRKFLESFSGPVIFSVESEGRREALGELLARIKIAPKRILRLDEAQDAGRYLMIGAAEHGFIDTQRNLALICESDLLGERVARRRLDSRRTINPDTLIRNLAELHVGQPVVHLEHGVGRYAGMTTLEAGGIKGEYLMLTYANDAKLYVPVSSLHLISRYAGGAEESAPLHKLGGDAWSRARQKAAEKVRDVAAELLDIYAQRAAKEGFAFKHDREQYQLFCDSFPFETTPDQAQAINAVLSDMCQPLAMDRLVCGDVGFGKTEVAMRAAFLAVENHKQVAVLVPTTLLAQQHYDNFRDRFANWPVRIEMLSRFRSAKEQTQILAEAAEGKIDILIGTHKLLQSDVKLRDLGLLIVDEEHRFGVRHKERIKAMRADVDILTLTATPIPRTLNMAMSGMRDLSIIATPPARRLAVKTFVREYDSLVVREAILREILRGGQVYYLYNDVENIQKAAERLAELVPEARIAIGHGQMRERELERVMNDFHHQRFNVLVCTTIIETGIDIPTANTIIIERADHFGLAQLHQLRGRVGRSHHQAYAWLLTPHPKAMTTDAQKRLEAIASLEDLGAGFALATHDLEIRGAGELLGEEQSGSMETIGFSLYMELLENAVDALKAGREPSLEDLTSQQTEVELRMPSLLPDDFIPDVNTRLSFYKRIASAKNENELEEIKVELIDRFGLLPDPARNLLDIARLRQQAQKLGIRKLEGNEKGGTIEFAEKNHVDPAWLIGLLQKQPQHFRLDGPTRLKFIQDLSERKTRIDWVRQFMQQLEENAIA
compound,measurement,setting,value
"Cc1cc(Br)ccc1-c1ccc(CNCCCN(C)C)o1 [ARM-1, N^1-((5-(4-bromo-2-methylphenyl)furan-2-yl)methyl)-N^3,N^3-dimethylpropane-1,3-diamine]",RpoB association with rDNA,"[1]; 5 mM ARM-1, WT cells",little change
same,RpoB association with rDNA,"[1]; 10 mM ARM-1, WT cells",dramatic decrease
same,EC/IC (elongation complex to initiation complex ratio),S. typhimurium ST19 Mfd,0.46
same,ATP hydrolysis by Mfd,"Mfd; 6.25 μM to 50 μM ARM-1, ratios of 125 to 1000 ARM-1 per Mfd",dose dependent increase
same,fold induction at 50 µM,"Mfd; 50 μM ARM-1, read-out: ATPase activity enhancement",~3
